In patent EP2719696A1, “NOVEL KINASE INHIBITORS” (Asinex Limited, priority 2011, dated 2012) one finds IC50 and Kp data, which are given here for 13 compounds.

Where two headings read alike, the source gives them in different places. Some results are limits rather than exact numbers.

The target in one data set is PDGFR-α (Homo sapiens, UniProt P16234). The data set is described as follows: Kinase inhibition assay (ELISA). Type of data set: biochemical. Particulars: 1 µM ATP. The procedure:
(§1) To determine the interaction of our compounds with tyrosine kinases: PDGFR-α, cKIT, PDGFR-β, VEGFR-2 we used enzyme-linked immunosorbent assay (ELISA).
(§2) Determination plates preparation: The plates are processed by neutravidine for 2 h at 30°C. After washing thrice with TBS/0.1% Tween-20 and blocking with 1% BSA/TBS for 1 h at room temperature (RT) 96-well microtiter plates were washed thrice with TBS/0.1% Tween-20 again.
(§3) Reaction: After addition test compounds (in DMSO, DMSO final concentration - 5%) to reaction buffer (20 mM HEPES, pH 7.5, 15 mM MgCl2, 3 mM MnCl2, 2 mM DTT, 0.2 mM Na3VO4, 0.005% Triton X-100; PDGFR-α,: 0.05 µg/ml, 0.5 µg/ml Poly(G,T)-biotin; PDGFR-β: 0.05 µg/ml, 1 µg/ml Poly(G,T)-biotin; c-KIT: 0.03 µg/ml, 0.15 µg/ml Poly(G,T)-biotin; VEGFR-2: 0.07 µg/ml, 0.05 µg/ml Poly(G,T)-biotin) and preincubation of reaction for 10 min at RT and intensive agitation, ATP solution (PDGFR-α, - 1 µM, PDGFR-β - 0.5 µM, c-KIT - 60 µM, VEGFR-2: - 1.5 µM ATP in reaction buffer per well) was added to initiate reaction. Following incubation of mixture for 1 h at 30°C and intensive agitation the reaction was stopped by stop solution (20 mM HEPES, pH 7.5, 50 mM EDTA).
(§4) Kinase activity determination: The reaction mixture was transferred to determination plate. After mix incubation for 1 h at RT and intensive agitation the plates were washed thrice with TBS/0.1% Tween-20. Following mouse monoclonal 0.05 µg/ml Anti-p-Tyr (PY20) HRP antibodies (Santa Cruz Biotechnology) in PBS/BSA were added for 1 h at RT and intensive agitation. After washing, antibody binding was detected by tetramethylbenzidine (TMB) color development (Sigma). Measurement of A450 nm was carried out after addition of H2SO4
Background: In an ELISA, binding on a coated surface is turned into a signal by an enzyme label.

The next data set concerns the target VEGFR-2 (Homo sapiens, UniProt P35968). The data set is described as follows: Kinase inhibition assay (ELISA). Type of data set: biochemical. The note with it: 1.5 µM ATP. The method, then:
as §1, §2, §3, §4

Another data set deals with cKIT (Homo sapiens, UniProt P10721). The data set is described as follows: Kinase inhibition assay (ELISA). It is filed as biochemical. The note with it: 60 µM ATP. The method, then:
as §1, §2, §3, §4

For the next data set, the system named is A172. The data set is described as follows: MTT proliferation / cytotoxicity assay. Type of data set: cell-based, human. The note with it: Homo sapiens, A 172, 72 h, glioblastoma cell line. The procedure:
(§5) Cell culture. The human cancer cell lines A172, A375, A2780 and U251 were purchased from the American Type Culture Collection. All cells were routinely maintained in DMEM containing 10% fetal bovine serum (Omega Scientific), at 37°C in 5% C02.
(§6) Proliferation assay Inhibition of cell A172, A375, A2780 and U251 cell proliferation was assessed by a MTT assay (MTT = Thiazolyl Blue Tetrazolium Bromide) . Cells were inoculated into 96-well microtiter plates containing 0.5% fetal calf serum and incubated at 37°C, 5% CO2, 95% air, and 100% relative humidity for 24 h prior to addition of testing compounds. Following compounds addition, the plates were incubated for an additional 72 h before processing to measure the cell population. Each compound was tested at eight different concentrations in triplicate, as was a control sample. Growth inhibition of 50% (IC50) is calculated by analysis of the data in Prizm3.4 software.
(§7) Table 8 lists IC50 values for inhibition of growth of several cancer cell lines, including the glioblastoma cell lines A172 and U251, measured in a MTT cytotoxicity assay. Table 8. Data of cytotoxicity assay (MTT) for several cancer cell lines, IC50 [µM]

The next data set deals with A2780. The data set is described as follows: MTT proliferation / cytotoxicity assay. It is filed as cell-based, human. Particulars: Homo sapiens, A2780, 72 h. The method, then: as §5, §6, §7
A short description of data set [1]: In vivo PK study, determination of brain-to-plasma ratio. Particulars: mouse, SHK mice, PO dosing 5mg/kg, 20% water solution of HPβCD, read-out: brain-to-plasma concentration ratio. The procedure: Male SHK mice (22-25 g) were dosed with 5 mg/kg of related compounds as a single injection via oral gavage (formulated in 20% water solution of HPβCD). Blood samples and whole brains were collected from three mice at each of eight collection time points of 0.05, 0.25, 0.5, 1, 2, 4, 8 and 24 h post dose. Plasma was collected from blood samples, and whole brain samples were homogenized in three volumes of water. Both tissues were analyzed for concentrations of related compounds by liquid chromatography-mass spectrometry (LC-MS/MS). Table 9. brain-to-plasma concentration ratios in SHK mice after PO dosing 5mg/kg for several selected examples

The test system of the next data set is A375. The data set is described as follows: MTT proliferation / cytotoxicity assay. It is filed as cell-based, human. The note with it: Homo sapiens, A-375, 72 h. The method, then:
as §5, §6, §7

A further data set relates to U251. The data set is described as follows: MTT proliferation / cytotoxicity assay. It is filed as cell-based, human. Particulars: Homo sapiens, U-251, 72 h, glioblastoma cell line. The method, then:
as §5, §6, §7

Chain of VEGFR-2 (P35968 20-1356, species assumed): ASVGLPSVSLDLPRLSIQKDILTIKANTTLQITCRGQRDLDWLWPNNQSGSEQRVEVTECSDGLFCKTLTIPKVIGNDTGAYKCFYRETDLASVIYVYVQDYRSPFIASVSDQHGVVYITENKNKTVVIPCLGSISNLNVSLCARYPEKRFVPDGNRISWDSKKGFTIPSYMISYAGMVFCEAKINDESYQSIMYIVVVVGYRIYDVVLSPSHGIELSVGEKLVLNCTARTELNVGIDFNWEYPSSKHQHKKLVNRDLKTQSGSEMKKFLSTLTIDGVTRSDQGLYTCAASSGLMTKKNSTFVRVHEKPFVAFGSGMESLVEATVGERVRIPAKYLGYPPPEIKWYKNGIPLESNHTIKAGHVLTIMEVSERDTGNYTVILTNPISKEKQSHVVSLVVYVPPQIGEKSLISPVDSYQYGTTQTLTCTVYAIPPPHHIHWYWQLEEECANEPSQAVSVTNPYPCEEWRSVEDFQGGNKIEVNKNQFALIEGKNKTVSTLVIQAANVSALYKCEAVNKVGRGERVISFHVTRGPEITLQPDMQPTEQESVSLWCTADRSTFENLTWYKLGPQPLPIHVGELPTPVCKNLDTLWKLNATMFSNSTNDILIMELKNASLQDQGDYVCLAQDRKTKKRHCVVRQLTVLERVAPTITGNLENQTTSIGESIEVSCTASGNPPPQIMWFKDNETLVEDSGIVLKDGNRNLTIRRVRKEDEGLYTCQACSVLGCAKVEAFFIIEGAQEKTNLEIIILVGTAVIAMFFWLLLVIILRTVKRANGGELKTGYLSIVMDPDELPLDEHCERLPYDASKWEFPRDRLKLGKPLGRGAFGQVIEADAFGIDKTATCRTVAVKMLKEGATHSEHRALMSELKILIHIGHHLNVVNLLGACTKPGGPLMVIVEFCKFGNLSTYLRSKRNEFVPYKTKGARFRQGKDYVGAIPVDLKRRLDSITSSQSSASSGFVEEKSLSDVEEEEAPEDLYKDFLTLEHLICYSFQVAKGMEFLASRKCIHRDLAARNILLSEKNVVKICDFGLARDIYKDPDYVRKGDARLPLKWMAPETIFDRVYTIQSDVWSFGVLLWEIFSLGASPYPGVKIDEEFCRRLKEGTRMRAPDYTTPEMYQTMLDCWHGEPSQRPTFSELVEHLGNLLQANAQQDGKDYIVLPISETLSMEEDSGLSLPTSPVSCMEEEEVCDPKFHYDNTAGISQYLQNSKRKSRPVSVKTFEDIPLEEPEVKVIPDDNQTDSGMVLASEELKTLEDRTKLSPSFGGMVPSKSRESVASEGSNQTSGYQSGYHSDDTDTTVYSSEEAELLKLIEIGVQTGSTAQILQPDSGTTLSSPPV
Chain of cKIT (P10721 26-976): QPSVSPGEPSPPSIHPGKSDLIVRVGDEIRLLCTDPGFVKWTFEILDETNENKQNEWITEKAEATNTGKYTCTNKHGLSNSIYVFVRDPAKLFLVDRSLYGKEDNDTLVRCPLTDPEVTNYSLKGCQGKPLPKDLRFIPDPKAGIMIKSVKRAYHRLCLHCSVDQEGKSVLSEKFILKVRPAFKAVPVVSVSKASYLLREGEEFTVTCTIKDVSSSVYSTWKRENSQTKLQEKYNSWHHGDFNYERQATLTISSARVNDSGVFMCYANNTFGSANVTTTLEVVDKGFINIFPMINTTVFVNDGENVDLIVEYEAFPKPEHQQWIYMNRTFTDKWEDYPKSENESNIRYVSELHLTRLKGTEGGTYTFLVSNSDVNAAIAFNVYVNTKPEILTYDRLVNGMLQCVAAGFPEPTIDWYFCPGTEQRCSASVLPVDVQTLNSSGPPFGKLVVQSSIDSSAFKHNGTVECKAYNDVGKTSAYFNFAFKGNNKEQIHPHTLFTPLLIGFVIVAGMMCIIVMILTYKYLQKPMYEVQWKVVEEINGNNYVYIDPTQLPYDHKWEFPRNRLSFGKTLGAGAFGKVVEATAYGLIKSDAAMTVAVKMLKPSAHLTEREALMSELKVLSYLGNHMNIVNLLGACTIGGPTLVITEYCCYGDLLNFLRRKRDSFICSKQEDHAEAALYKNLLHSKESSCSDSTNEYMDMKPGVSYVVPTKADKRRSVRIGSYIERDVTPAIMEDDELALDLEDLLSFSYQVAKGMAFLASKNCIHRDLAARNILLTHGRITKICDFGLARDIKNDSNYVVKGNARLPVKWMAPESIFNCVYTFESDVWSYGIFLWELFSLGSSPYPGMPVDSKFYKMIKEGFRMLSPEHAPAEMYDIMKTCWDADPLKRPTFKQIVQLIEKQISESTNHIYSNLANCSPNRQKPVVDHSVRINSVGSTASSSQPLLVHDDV
Chain of PDGFR-α (P16234 24-1089, species assumed): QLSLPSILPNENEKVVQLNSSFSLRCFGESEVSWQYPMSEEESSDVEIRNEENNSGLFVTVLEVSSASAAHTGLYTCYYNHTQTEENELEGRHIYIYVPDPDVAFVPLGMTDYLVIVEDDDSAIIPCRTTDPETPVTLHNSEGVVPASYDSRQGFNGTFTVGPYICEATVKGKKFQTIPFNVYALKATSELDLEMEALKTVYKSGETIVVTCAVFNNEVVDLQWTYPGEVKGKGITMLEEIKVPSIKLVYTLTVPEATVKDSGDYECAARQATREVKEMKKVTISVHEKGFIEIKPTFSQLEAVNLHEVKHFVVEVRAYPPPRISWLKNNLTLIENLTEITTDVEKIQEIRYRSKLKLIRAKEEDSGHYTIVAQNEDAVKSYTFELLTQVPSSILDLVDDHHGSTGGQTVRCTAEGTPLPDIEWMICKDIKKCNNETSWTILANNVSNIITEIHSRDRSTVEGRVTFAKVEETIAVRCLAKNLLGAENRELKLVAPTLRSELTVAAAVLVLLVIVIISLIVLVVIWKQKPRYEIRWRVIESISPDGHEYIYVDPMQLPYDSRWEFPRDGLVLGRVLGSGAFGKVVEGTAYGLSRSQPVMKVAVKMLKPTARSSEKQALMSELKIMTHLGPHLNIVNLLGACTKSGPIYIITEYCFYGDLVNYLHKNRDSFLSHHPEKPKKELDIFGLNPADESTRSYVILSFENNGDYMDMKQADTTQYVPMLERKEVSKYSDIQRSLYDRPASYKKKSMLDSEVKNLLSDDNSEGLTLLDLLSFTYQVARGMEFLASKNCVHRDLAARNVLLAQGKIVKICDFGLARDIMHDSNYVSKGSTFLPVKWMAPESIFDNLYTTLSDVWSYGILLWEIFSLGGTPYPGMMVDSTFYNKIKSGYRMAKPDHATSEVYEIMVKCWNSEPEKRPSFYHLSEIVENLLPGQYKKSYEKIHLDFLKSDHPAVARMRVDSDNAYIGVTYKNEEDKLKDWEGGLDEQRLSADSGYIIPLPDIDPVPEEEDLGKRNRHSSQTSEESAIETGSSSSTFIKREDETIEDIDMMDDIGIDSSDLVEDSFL

With `Fc1ccc(-c2cnc(Nc3cc(CC4CCCC5CNCC54)ccn3)s2)cc1` (stereo not drawn) [Example 017, [5-(4-Fluoro-phenyl)-thiazol-2-yl]-[4-(octahydro-isoindol-4-ylmethyl)-pyridin-2-yl]-amine], the IC50 (as a rule, the concentration needed to halve the response being measured) against PDGFR-α is < 10 nM; against VEGFR-2 it was > 10 nM; against cKIT, < 10 nM; in the data set on A172, > 1 µM; in the data set on A2780, < 1 µM. Also, in data set [1] (male, brain/plasma), the Kp came out at 0.28.

`COC(=O)C1CC(Cc2ccnc(Nc3ncc(-c4ccccc4)s3)c2)CC1N` (stereo not drawn) [Example 023, 2-Amino-4-[2-(5-phenyl-thiazol-2-ylamino)-pyridin-4-ylmethyl]-cyclopentanecar-boxylic acid methyl ester]: the concentration for half-maximal inhibition (IC50) was < 10 nM on PDGFR-α; > 10 nM at VEGFR-2; < 10 nM at cKIT; > 1 µM in the data set on A172; > 1 µM with A2780. Besides, the Kp in data set [1] (brain) was determined as 0.78.

Take `OCCN1CCOCC(Cc2ccnc(Nc3ncc(-c4ccc(F)cc4)s3)c2)C1` (stereo not drawn) [Example 011, 2-(6-{2-[5-(4-Fluoro-phenyl)-thiazol-2-ylamino]-pyridin-4-ylmethyl}-[1,4]oxazepan-4-yl)-ethanol]: the IC50 at PDGFR-α was < 10 nM; against VEGFR-2, > 10 nM; on cKIT, > 10 nM; in the data set with A172 it was > 1 µM; in the data set with A2780, > 1 µM; in the data set on A375, > 1 µM. The concentration for half-maximal inhibition (IC50) with U251 was > 10 µM. Further, in data set [1] (male, brain/plasma), the Kp worked out at 12.7.

`Cc1nc(Nc2ncc(-c3ccccc3)s2)cc(C2CCN(CCO)CC2)n1` [Example 032, 2-{4-[2-Methyl-6-(5-phenyl-thiazol-2-ylamino)-pyrimidin-4-yl]-piperidin-1-yl}-ethanol]: the IC50 is < 10 nM on PDGFR-α; > 10 nM on VEGFR-2; > 10 nM against cKIT; > 1 µM in the data set with A172; ≤ 1 µM with A2780; > 10 µM in the data set on U251. Moreover, the Kp in data set [1] (male, brain/plasma) is 0.81.

Regarding `Fc1ccc(-c2cnc(Nc3cc(CC4CNCCOC4)ccn3)s2)cc1` (stereo not drawn) [Example 009, [5-(4-Fluoro-phenyl)-thiazol-2-yl]-(4-[1,4]oxazepan-6-ylmethyl-pyridin-2-yl)-amine], the IC50 is < 10 nM at PDGFR-α; > 10 nM at VEGFR-2; < 10 nM at cKIT; > 10 µM with A172; > 1 µM in the data set with A2780; > 1 µM in the data set with A375. Moreover, in the data set with U251, the IC50 was > 10 µM. The Kp in data set [1] (male, brain/plasma) came out at 10.3.

For the compound `OCC(O)CN1CCC(c2ccnc(Nc3ncc(-c4ccc(F)cc4)s3)c2)CC1` (stereo not drawn) [Example 034, 3-{2'-[5-(4-Fluoro-phenyl)-thiazol-2-ylamino]-3,4,5,6-tetrahydro-2H-[4,4']bipyridinyl-1-yl}-propane-1,2-diol], the IC50 is < 10 nM against PDGFR-α; > 10 nM against VEGFR-2; < 10 nM against cKIT; > 1 µM with A172; > 10 µM with A2780. For the same compound, in data set [1] (male, brain/plasma), the Kp was 1.79.

Consider `OCCN1CCC(c2ccnc(Nc3ncc(-c4ccc(F)cc4)s3)c2)CC1` [Example 035], for which the half-maximal inhibitory concentration (IC50) at PDGFR-α is < 10 nM; on VEGFR-2, < 10 nM; at cKIT, < 10 nM; in the data set with A172, > 1 µM; in the data set on A2780, > 1 µM; in the data set with A375, > 1 µM. The concentration for half-maximal inhibition (IC50) with U251 is > 1 µM. Moreover, in data set [1] (brain), the Kp was 18.5.

Turning to `O=C(Nc1ccccc1Cl)c1cnc(Nc2cc(C3CCN(CCO)CC3)ccn2)s1` [Example 044, 2-[1'-{2-Hydroxy-ethyl)-1',2',3',4',5',6' -hexahydro-[4,4']bipyridinyl-2-ylamino]-thiazole-5-carboxylic acid (2-chlorophenyl)-amide], the IC50 at PDGFR-α was < 10 nM; on VEGFR-2, > 100 nM; against cKIT it was > 10 nM; with A375 it was > 1 µM. Further, the Kp in data set [1] (male, brain/plasma) worked out at 0.19.

For `OCCN1CCC(c2ccnc(Nc3ncc(CC(F)(F)F)s3)c2)CC1` [Example 040, 2-{2'-[5-(2,2,2-Trifluoro-ethyl)-thiazol-2-ylamino]-3,4,5,6-tetrahydro-2H-[4,4']bipyridinyl-1-yl}-ethanol], the concentration for half-maximal inhibition (IC50) against PDGFR-α is > 100 nM; at VEGFR-2, > 100 nM; against cKIT it was > 100 nM; in the data set with A172 it was ≤ 1 µM; with A2780, > 10 µM; with A375 it was > 1 µM. Moreover, the half-inhibitory concentration (IC50) in the data set with U251 was > 10 µM. Moreover, the Kp in data set [1] (male, brain/plasma) came to 1.38.

For the compound `OCCN1CCC(Cc2ccnc(Nc3ncc(-c4ccc(F)cc4)s3)c2)CC1` [Example 003, 2-(4-{2-[5-(4-Fluoro-phenyl)-thiazol-2-ylamino]-pyridin-4-ylmethyl}-piperidin-1-yl)-ethanol], the IC50 at PDGFR-α was < 10 nM; against VEGFR-2, > 10 nM; against cKIT it was > 10 nM; in the data set with A172, ≤ 1 µM; in the data set with A2780 it was > 1 µM; in the data set on A375, > 1 µM. In addition, in the data set with U251, the half-inhibitory concentration (IC50) was > 10 µM. For the same compound, in data set [1] (male, brain/plasma), the Kp amounted to 3.66.

With `Fc1ccc(-c2cnc(Nc3cccc(CC4CNCCOC4)n3)s2)cc1` (stereo not drawn) [Example 013, [5-(4-Fluoro-phenyl)-thiazol-2-yl]-(6-[1,4]oxazepan-6-ylmethyl-pyridin-2-yl)-amine], the IC50 against PDGFR-α was > 100 nM; on VEGFR-2 it was > 1000 nM; against cKIT it was > 10 nM; with A172 it was > 1 µM; in the data set on A2780, < 1 µM; in the data set with A375 it was ≤ 1 µM. Moreover, the IC50 in the data set on U251 is > 1 µM. The Kp in data set [1] (male, brain/plasma) was 0.59.

Turning to `OCCN1CCC(c2ccnc(Nc3ncc(-c4ccc(F)c(F)c4)s3)c2)CC1` [Example 038, 2-{2'-[5-(3,4-Difluoro-phenyl)-thiazol-2-ylamino]-3,4,5,6-tetrahydro-2H-[4,4']bipyridinyl-1-yl}-ethanol], the IC50 was < 10 nM against PDGFR-α; > 10 nM against VEGFR-2; > 10 nM against cKIT; ≤ 1 µM in the data set with A172; > 10 µM in the data set on A2780; > 1 µM with A375. The IC50 with U251 was > 1 µM.

Regarding `Fc1ccc(-c2cnc(Nc3cc(CC4CNCCNC4)ccn3)s2)cc1` [Example 019, (4-[1,4]Diazepan-6-ylmethyl-pyridin-2-yl)-[5-(4-fluoro-phenyl)-thiazol-2-yl]-amine], the half-maximal inhibitory concentration (IC50) against PDGFR-α is < 10 nM; against VEGFR-2 it was > 10 nM; against cKIT, < 10 nM; in the data set on A172 it was > 10 µM; in the data set on A2780, > 1 µM; in the data set on A375, > 1 µM. For the same compound, the IC50 in the data set with U251 is > 10 µM. For the same compound, in data set [1] (male, brain/plasma), the Kp was determined as 0.96.
